{
  "source": "paper PMC3509570",
  "about": "“Bioavailability and Brain-Targeting of Geniposide in Gardenia-Borneol Co-Compound by Different Administration Routes in Mice” (International Journal of Molecular Sciences, 2012)",
  "key": {"[1]": {"conditions": "octanol/water system; cited from earlier work"}, "[2]": {"assay": "Plasma pharmacokinetics of Ge in mice after i.v., i.n. and i.g. administration of Gardenia-Borneol co-compound", "format": "in vivo", "conditions": "for bioavailability / Cmax / AUC(0-t) / MRT last / Tmax: mouse; for bioavailability: read-out: F (absolute bioavailability); for Cmax / AUC(0-t) / MRT last / Tmax: 18 mg/kg gardenia extract + 18 mg/kg borneol; for AUC(0-t): read-out: AUC0–120 (converted); for MRT last: read-out: MRT0–120 (converted)", "procedure": "Non-compartmental analysis of pharmacokinetic data was performed by Kinetica 4.4 software. The absolute bioavailability was F, F = AUCblood (i.n./i.g.)/AUCblood (i.v.) × 100%.\n(§1) The separation was carried out using a Diamonsil C18 column ([…], i.d., 5.0 μm) under the following chromatographic conditions: column temperature, 25 °C; sample injection volume, 20 μL; flow rate, 1.0 mL/min; detection wavelength, 238 nm; and mobile phase, acetonitrile-water(14:86).\n(§2) 1% (v/v) of Tween-80 and 20% (v/v) ethanol were dissolved in physiological saline and used as the solvent for drugs. 1.2 g of borneol fine powder and 1.2 g gardenia extract were dissolved into 10 mL solvent, named as co-compound nasal drops. Dilute 0.3 mL of nasal drops precisely with 1% Tween 80-normal saline solution into 10 mL, filtrate by 0.22 μm filter, named as co-compound injection. Dilute 0.3 mL of nasal drops precisely with 1% Tween 80-normal saline solution into 10 mL, named as co-compound intragastric solution.\n(§3) 120 mice were divided into 3 groups (A, B, C), equally and randomly, 40 for each group. Group A was injected 0.1 mL co-compound injection via the tail vein. Group B was treated 3 μL nasal drops with a soft PE polyethylene tube after anesthesia by ether steam. Group C was treated 0.1 mL co-compound intragastric solution. The doses chosen for the mice were 18mg/kg·d (borneol and gardenia extract, respectively), 3 times based on the doses for human beings. The blood samples were collected into heparinized tubes by pricking the eyeball. Then, mice were killed by decollation. The corresponding brains were also collected at 1, 3, 5, 10, 30, 60, 90 and 120 min after drug administration. The brains were accurately weighed, and plasma was obtained after centrifugation. The sample processing and determination were immediately made when plasma and brain tissue were obtained.\nPlasma sample (100 μL) was placed into a centrifuge tube. To precipitate proteins in the sample, 300 μL acetonitrile was added and vortexed for 1 min. After centrifugation at 10,000 rpm for 10 min, supernatant was removed and evaporated under air stream in a water bath at 60 °C. The residue was dissolved in 100 μL of methanol and vortexed for 30 s, centrifuged at 10,000 rpm for 10 min. 20 μL of supernatant was injected into the HPLC system for analysis."}, "[3]": {"assay": "Brain pharmacokinetics and brain targeting of Ge in mice after i.v., i.n. and i.g. administration of Gardenia-Borneol co-compound", "format": "in vivo", "conditions": "for Kp / MRT last / Cmax / Tmax / AUC(0-t): mouse; for Kp: read-out: Te (brain/blood drug ratio); for MRT last / Cmax / Tmax / AUC0–120 / AUC(0-t): brain; for Cmax: 18 mg/kg gardenia extract + 18 mg/kg borneol; for AUC(0-t): read-out: AUC0–120 (converted)", "procedure": "The relative brain targeted coefficient was Re, Re = AUCbrain (i.n./i.g.)/AUCbrain (i.v.) × 100%. The brain/blood drug ratio was Te, Te = AUCbrain/AUCblood × 100%. So the drug target index was DTI, DTI = Te(i.n. /i.g.)/Te(i.v). […] AUC0–120 was 37270.5 ± 4160.6, 32413.6 ± 4573.9 and 6440.1 ± 863.7 […] for i.v., i.n. and i.g., respectively.\nas §1, §2, §3\nThe brains were washed by normal saline to remove excess surface blood and were dried by filter paper. The bloodless brains were homogenized after mixing with normal saline solution 1.5 times to the weight. After centrifugation at 12,000 rpm for 5 min, 600 μL methanol (the brain homogenate was 300 μL) was added in the supernatant to precipitate proteins in the sample. After being vortexed for 1 min, the solution was centrifuged at 12,000 rpm for 5 min. Then, supernatant was removed and evaporated under air stream in a water bath at 60 °C. The residue was dissolved in 100 μL of methanol and vortexed for 30 s, centrifuged at 12,000 rpm for 5 min. 20 μL aliquot supernatant was injected into the HPLC system for analysis."}, "[4]": {"conditions": "cited from earlier work"}, "[5]": {"conditions": "inhaled or intranasal, plasma, i.n."}, "[6]": {"conditions": "ICR, in vivo, po, 18 mg/kg, i.g."}, "[7]": {"conditions": "ICR, inhaled or intranasal, 18 mg/kg, i.n."}},
  "note": "“And” between values parts separate entries of the source, which are not always exact repeats. Equal values may be shown once. Read-outs that look alike come from different tables or passages of the source.",
  "data": [
    {"smiles": "COC(=O)C1=CO[C@@H](O[C@@H]2O[C@H](CO)[C@@H](O)[C@H](O)[C@H]2O)[C@@H]2C(CO)=CC[C@H]12", "note": "[Ge, geniposide]", "values": [
      {"measurement": "log p", "setting": "[1]", "result": "−0.97"},
      {"measurement": "Cmax in plasma relative to i.v.", "setting": "[2]; i.g. vs i.v.", "result": "1/20"},
      {"measurement": "Cmax in plasma relative to i.v.", "setting": "[2]; i.n. vs i.v.", "result": "up to 1/2"},
      {"measurement": "bioavailability", "setting": "[2]; in vivo, 18 mg/kg, i.g. vs i.v.", "result": 28.8, "unit": "%"},
      {"measurement": "bioavailability", "setting": "[2]; in vivo, 18 mg/kg, i.v. (reference), F = AUCblood(i.n./i.g.)/AUCblood(i.v.) × 100%", "result": 100, "unit": "%"},
      {"measurement": "Cmax", "setting": "[2]; in vivo, iv, plasma, i.v.", "result": "42400 ± 6270", "unit": "ng/mL"},
      {"measurement": "AUC(0-t)", "setting": "[2]; in vivo, iv, plasma, i.v.", "result": 5410, "unit": "ng·h/mL"},
      {"measurement": "MRT last", "setting": "[2]; in vivo, iv, plasma, i.v.", "result": 15, "unit": "min"},
      {"measurement": "Tmax", "setting": "[2]; in vivo, po, 18 mg/kg, plasma, i.g.", "result": "~30", "unit": "min"},
      {"measurement": "Cmax", "setting": "[2]; in vivo, po, plasma, i.g.", "result": "1910 ± 327", "unit": "ng/mL"},
      {"measurement": "AUC(0-t)", "setting": "[2]; in vivo, po, plasma, i.g.", "result": 1560, "unit": "ng·h/mL"},
      {"measurement": "MRT last", "setting": "[2]; in vivo, po, plasma, i.g.", "result": 42, "unit": "min"},
      {"measurement": "Cmax", "setting": "[2]; [5]", "result": "21900 ± 5400", "unit": "ng/mL"},
      {"measurement": "Tmax", "setting": "[2]; [5]", "result": 1, "unit": "min"},
      {"measurement": "AUC(0-t)", "setting": "[2]; [5]", "result": 4620, "unit": "ng·h/mL"},
      {"measurement": "MRT last", "setting": "[2]; [5]", "result": 31.7, "unit": "min"},
      {"measurement": "bioavailability", "setting": "[2]; plasma, other: i.n. (nasal drops), 18 mg/kg, i.n. vs i.v.", "result": 85.4, "unit": "%"},
      {"measurement": "Kp", "setting": "[3]; ICR, in vivo, i.g.", "result": 0.0689},
      {"measurement": "Kp", "setting": "[3]; ICR, in vivo, i.n.", "result": 0.117},
      {"measurement": "MRT last", "setting": "[3]; ICR, in vivo, iv, 18 mg/kg", "result": 48.3, "unit": "min"},
      {"measurement": "Kp", "setting": "[3]; ICR, in vivo, iv, Te = AUCbrain/AUCblood × 100%", "result": 0.115},
      {"measurement": "Cmax", "setting": "[3]; ICR, in vivo, iv, i.v.", "result": "1480 ± 145", "unit": "ng/g"},
      {"measurement": "MRT last", "setting": "[3]; [6]", "result": 60, "unit": "min"},
      {"measurement": "Tmax", "setting": "[3]; [6]", "result": 60, "unit": "min"},
      {"measurement": "Cmax", "setting": "[3]; ICR, in vivo, po, i.g.", "result": "76.2 ± 22.1", "unit": "ng/g"},
      {"measurement": "MRT last", "setting": "[3]; [7]", "result": 51.2, "unit": "min"},
      {"measurement": "Tmax", "setting": "[3]; [7]", "result": 3, "unit": "min"},
      {"measurement": "Cmax", "setting": "[3]; ICR, inhaled or intranasal, i.n.", "result": "747 ± 175", "unit": "ng/g"},
      {"measurement": "AUC0–120", "setting": "[3]; i.g.", "result": "6440.1 ± 863.7", "unit": "ng·min/g"},
      {"measurement": "AUC0–120", "setting": "[3]; i.n.", "result": "32413.6 ± 4573.9", "unit": "ng·min/g"},
      {"measurement": "AUC0–120", "setting": "[3]; i.v.", "result": "37270.5 ± 4160.6", "unit": "ng·min/g"},
      {"measurement": "Re (relative brain targeted coefficient)", "setting": "[3]; i.g. vs i.v.", "result": "17.28% and 17.28 ^** %"},
      {"measurement": "brain peak concentration compared to the i.v. group", "setting": "[3]; i.g. vs i.v.", "result": "1/20"},
      {"measurement": "DTI (drug target index)", "setting": "[3]; i.n. vs i.v.", "result": 1.02},
      {"measurement": "Re (relative brain targeted coefficient)", "setting": "[3]; i.n. vs i.v.", "result": 86.97, "unit": "%"},
      {"measurement": "brain peak concentration compared to the i.v. group", "setting": "[3]; i.n. vs i.v.", "result": "up to 1/2"},
      {"measurement": "DTI (drug target index)", "setting": "[3]; i.v. (reference), DTI = Te(i.n./i.g.)/Te(i.v.)", "result": 1},
      {"measurement": "Re (relative brain targeted coefficient)", "setting": "[3]; i.v. (reference), Re = AUCbrain(i.n./i.g.)/AUCbrain(i.v.) × 100%", "result": 100, "unit": "%"},
      {"measurement": "AUC(0-t)", "setting": "[3]; in vivo, inhaled or intranasal, 18 mg/kg, i.n.", "result": 540000, "unit": "ng·h/mL"},
      {"measurement": "AUC(0-t)", "setting": "[3]; in vivo, iv, 18 mg/kg, i.v.", "result": 621000, "unit": "ng·h/mL"},
      {"measurement": "AUC(0-t)", "setting": "[3]; in vivo, po, 18 mg/kg, i.g.", "result": 107000, "unit": "ng·h/mL"},
      {"measurement": "Tmax", "setting": "[3]; in vivo, po, i.g.", "result": "~60", "unit": "min"},
      {"measurement": "intranasal absorption coefficient (K)", "setting": "[4]; Ge alone", "result": 0.061, "unit": "h⁻¹"},
      {"measurement": "intranasal absorption coefficient (K)", "setting": "[4]; Ge in Gardenia-Borneol co-compound", "result": 0.11, "unit": "h⁻¹"}
    ]}
  ]
}
